We go through 32 molecules from patent US8058475B2, “Substituted cyclohexylmethyl compounds” (Gruenenthal GmbH, priority 2005, dated 2011).

This assay has as its target human μ-opiate receptor (Homo sapiens, UniProt P35372). As to the kind of experiment: Affinity for the human μ-opiate receptor ([3H]-naloxone displacement, SPA, CHO-K1 membrane preparation). It is filed as binding. The following applies: for pKi: read-out: μ-Opioid receptor, Ki; for inhibition at 1 µM: read-out: μ-Opioid receptor, % inhibition [1 μM].

The structures appear in SMILES notation. pKi: −log10 of the molar value.

Sequence of human μ-opiate receptor (P35372 whole entry): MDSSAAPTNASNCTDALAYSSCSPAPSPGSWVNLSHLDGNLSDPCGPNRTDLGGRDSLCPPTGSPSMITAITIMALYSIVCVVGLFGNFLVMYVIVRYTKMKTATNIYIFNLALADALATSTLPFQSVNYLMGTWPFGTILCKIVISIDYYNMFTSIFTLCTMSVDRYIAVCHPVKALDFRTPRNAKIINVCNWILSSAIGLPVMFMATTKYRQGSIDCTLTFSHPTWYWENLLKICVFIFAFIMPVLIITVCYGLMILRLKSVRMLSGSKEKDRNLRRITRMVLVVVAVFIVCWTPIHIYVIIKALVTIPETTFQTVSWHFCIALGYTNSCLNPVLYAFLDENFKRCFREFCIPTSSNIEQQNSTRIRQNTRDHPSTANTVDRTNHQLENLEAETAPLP

Consider `CC(=O)N(C(C)Cc1c[nH]c2ccccc12)C1CCC(C(c2ccccc2)N(C)C)CC1` (stereo not shown) [compound 177], for which the “μ-Opioid receptor, % inhibition [1 μM]” value stood at 86% and the pKi – broadly, −log10 of the Ki, conventionally taken in molar units – was 8.14. Consider `CN(C)C(c1cccc(F)c1)C1CCC(CCNC(=O)c2cc(F)c(Cl)cc2Cl)CC1` (single isomer, unassigned) [compound 439, 2,4-dichloro-N-(2-{4-[dimethylamino-(3-fluoro-phenyl)-methyl]-cyclohexyl}-ethyl)-5-fluoro-benzamide], for which the “μ-Opioid receptor, % inhibition [1 μM]” value was 85% and the negative-log Ki (pKi) was 7.28. Consider `Cc1ccccc1C(=O)NCC1CCC(C(c2ccccc2)N(C)C)CC1` (single isomer, unassigned) [compound 325, N-[4-(dimethylamino-phenyl-methyl)-cyclohexylmethyl]-2-methyl-benzamide], for which the “μ-Opioid receptor, % inhibition [1 μM]” value is reported as 94% and the pKi was 7.47. For `CN(C)C(c1ccccc1)C1CCC(CCNC(=O)c2csc(-c3ccc4c(c3)CCO4)n2)CC1` (stereo not shown) [compound 468, 2-(2,3-dihydro-benzofuran-5-yl)-thiazole-4-carboxylic acid {2-[4-(dimethylamino-phenyl-methyl)-cyclohexyl]-ethyl}-amide], the inhibition (in general, the share of the control response that was lost under treatment) at 1 µM was 83% and the pKi is 6.80. `CN(C)C(c1ccccc1)C1CCC(CNC(=O)c2csc(-c3ccccc3)n2)CC1` (stereo not shown) [compound 335, 2-phenyl-thiazole-4-carboxylic acid [4-(dimethylamino-phenyl-methyl)-cyclohexylmethyl]-amide]: the inhibition at 1 µM turned out to be 92% and the pKi is 7.48.

For `COc1ccc(CN(C(C)=O)C2CCC(C(c3ccccc3)N(C)C)CC2)cc1` (stereo not shown) [compound 176, N-(4-((dimethylamino)(phenyl)methyl)cyclohexyl)-N-(4-methoxybenzyl)-acetamide], the inhibition at 1 µM is 86% and the negative-log Ki (pKi) is 7.72. For the molecule `Cc1cc(C(=O)NCC2CCC(C(c3ccccc3)N(C)C)CC2)no1` (stereo not shown) [compound 379, 5-methyl-isoxazole-3-carboxylic acid [4-(dimethylamino-phenyl-methyl)-cyclohexylmethyl]-amide], the inhibition at 1 µM turned out to be 83%.

Take `CN(C)C(c1ccccc1)C1CCC(CNC(=O)Cc2ccccc2)CC1` (stereo not shown) [compound 306, N-[4-(dimethylamino-phenyl-methyl)-cyclohexylmethyl]-2-phenyl-acetamide]: the inhibition at 1 µM stood at 98% and the negative logarithm of the Ki (pKi) is 8.00. In the same order, the values of `CSc1ncccc1C(=O)NC1CCC(C(c2cccs2)N(C)C)CC1` (stereo not shown) [compound 208, N-[4-(dimethylamino-thiophen-2-yl-methyl)-cyclohexyl]-2-methylsulfanyl-nicotinamide] are 92% and 6.89. Take `COc1ccccc1C(=O)NCCC1CCC(C(c2ccc(F)cc2)N(C)C)CC1` (stereo not shown) [compound 432, N-(2-{4-[dimethylamino-(4-fluoro-phenyl)-methyl]-cyclohexyl}-ethyl)-2-methoxy-benzamide]: the inhibition at 1 µM is 95% and the pKi was 7.74. For the molecule `CN(C)C(c1ccccc1)C1CCC(NC(=O)CC(C)(C)C)CC1` (single isomer, unassigned) [compound 246, N-[4-(dimethylamino-phenyl-methyl)-cyclohexyl]-3,3-dimethyl-butyramide], the “μ-Opioid receptor, % inhibition [1 μM]” value came out at 82% and the pKi is 7.41. With `CN(C)C(c1ccc(Cl)cc1)C1CCC(CCNC(=O)c2ccc(F)cc2F)CC1` (stereo not shown) [compound 436, N-(2-{4-[(4-chloro-phenyl)-dimethylamino-methyl]-cyclohexyl}-ethyl)-2,4-difluoro-benzamide], the inhibition at 1 µM was 91% and the pKi is 7.54. Turning to `CN(C)C(c1ccc(Cl)cc1)C1CCC(CNC(=O)c2cccc(C(F)(F)F)c2)CC1` (stereo not shown) [compound 369, N-{4-[(4-chloro-phenyl)-dimethylamino-methyl]-cyclohexylmethyl}-3-trifluoromethyl-benzamide], the inhibition at 1 µM turned out to be 84% and the negative-log Ki (pKi) was 7.17.

Consider `COc1cc(C(=O)NC2CCC(C(c3cccs3)N(C)C)CC2)cc(OC)c1OC` (stereo not shown) [compound 212, N-[4-(dimethylamino-thiophen-2-yl-methyl)-cyclohexyl]-3,4,5-trimethoxy-benzamide], for which the inhibition at 1 µM was 91% and the pKi was 7.72.

`COc1ccccc1C(=O)NC1CCC(C(c2cccs2)N(C)C)CC1` (stereo not shown) [compound 207, N-[4-(dimethylamino-thiophen-2-yl-methyl)-cyclohexyl]-2-methoxy-benzamide]: the inhibition at 1 µM is 92% and the negative-log Ki (pKi) was 7.55. For `CN(C)C(c1ccc(F)cc1)C1CCC(CCNC(=O)c2cccc(Br)c2)CC1` (stereo not shown) [compound 459, 3-bromo-N-(2-{4-[dimethylamino-(4-fluoro-phenyl)-methyl]-cyclohexyl}-ethyl)-benzamide], in that order: 90% and 7.51. With `CN(C)C(c1cccc(F)c1)C1CCC(CNC(=O)c2csc3ccccc23)CC1` (stereo not shown) [compound 314, benzo[b]thiophene-3-carboxylic acid {4-[dimethylamino-(3-fluoro-phenyl)-methyl]-cyclohexylmethyl}-amide], the inhibition at 1 µM was 97% and the pKi was 8.38. Take `CN(C)C(c1cccs1)C1CCC(NC(=O)Cc2ccc(Cl)cc2)CC1` (stereo not shown) [compound 219, 2-(4-chloro-phenyl)-N-[4-(dimethylamino-thiophen-2-yl-methyl)-cyclohexyl]-acetamide]: the inhibition at 1 µM was determined as 89% and the pKi was 7.25. Regarding `CN(C)C(c1ccccc1)C1CCC(NC(=O)c2c(F)ccc(F)c2F)CC1` (stereo not shown) [compound 244, N-[4-(dimethylamino-phenyl-methyl)-cyclohexyl]-2,3,6-trifluoro-benzamide], the inhibition at 1 µM worked out at 82% and the pKi is 7.52.

For `Cc1oc(-c2ccccc2)cc1C(=O)NCCC1CCC(C(c2ccccc2)N(C)C)CC1` (stereo not shown) [compound 467, 2-methyl-5-phenyl-furan-3-carboxylic acid {2-[4-(dimethylamino-phenyl-methyl)-cyclohexyl]-ethyl}-amide], the inhibition at 1 µM came out at 82% and the pKi was 7.21.

`COc1c(C(=O)NC2CCC(C(c3cccc(F)c3)N(C)C)CC2)csc1Cl` (stereo not shown) [compound 191, 5-chloro-4-methoxy-thiophene-3-carboxylic acid {4-[dimethylamino-(3-fluoro-phenyl)-methyl]-cyclohexyl}-amide]: the inhibition at 1 µM was 99%. For the molecule `Cc1cc(C(=O)NC2CCC(C(c3cccc(F)c3)N(C)C)CC2)c(C)o1` (stereo not shown) [compound 265, 2,5-dimethyl-furan-3-carboxylic acid {4-[dimethylamino-(3-fluoro-phenyl)-methyl]-cyclohexyl}-amide], the inhibition at 1 µM was 78% and the pKi is 6.85. In the same order, the values of `COc1ccc(C(=O)NC2CCC(C(c3cccs3)N(C)C)CC2)c(OC)c1` (stereo not shown) [compound 202, N-[4-(dimethylamino-thiophen-2-yl-methyl)-cyclohexyl]-2,4-dimethoxy-benzamide] are 94% and 7.51. As to `CC(=O)N(C(C)Cc1c[nH]c2ccccc12)C1CCC(C(c2ccccc2)N(C)C)CC1` (stereo not shown) [compound 178, N-(1-(1H-indol-3-yl)propan-2-yl)-N-(4-((dimethylamino)(phenyl)methyl)-cyclohexyl)acetamide], the inhibition at 1 µM stood at 96% and the pKi was 8.92. With `CN(C)C(c1ccccc1)C1CCC(NC(=O)Cc2ccc(Cl)cc2)CC1` (stereo not shown) [compound 206, 2-(4-chloro-phenyl)-N-[4-(dimethylamino-phenyl-methyl)-cyclohexyl]-acetamide], the inhibition at 1 µM was determined as 93% and the pKi is 7.25. Regarding `Cc1oc(-c2ccc(Cl)cc2)cc1C(=O)NC1CCC(C(c2cccc(F)c2)N(C)C)CC1` (stereo not shown) [compound 285, 5-(4-chloro-phenyl)-2-methyl-furan-3-carboxylic acid {4-[dimethylamino-(3-fluoro-phenyl)-methyl]-cyclohexyl}-amide], the inhibition at 1 µM was determined as 71%.

Consider `CN(C)C(c1ccccc1)C1CCC(CCNC(=O)c2ccc([N+](=O)[O-])cc2)CC1` (stereo not shown) [compound 458, N-{2-[4-(dimethylamino-phenyl-methyl)-cyclohexyl]-ethyl}-4-nitro-benzamide], for which the inhibition at 1 µM is 93% and the pKi was 7.31. For `CN(C)C(CCc1ccccc1)C1CCC(CNC(=O)c2csc3ccccc23)CC1` (stereo not shown) [compound 380, benzo[b]thiophene-3-carboxylic acid [4-(1-dimethylamino-3-phenyl-propyl)-cyclohexylmethyl]-amide], in that order: 83% and 7.02. For `CN(C)C(c1ccccc1)C1CCC(CCNC(=O)c2cc3ccccc3s2)CC1` (stereo not shown) [compound 457, benzo[b]thiophene-2-carboxylic acid {2-[4-(dimethylamino-phenyl-methyl)-cyclohexyl]-ethyl}-amide], in that order: 91% and 7.40. `COc1cccc(C(=O)NCCC2CCC(C(c3ccc(F)cc3)N(C)C)CC2)c1` (stereo not shown) [compound 447, N-(2-{4-[dimethylamino-(4-fluoro-phenyl)-methyl]-cyclohexyl}-ethyl)-3-methoxy-benzamide]: the inhibition at 1 µM came to 83% and the pKi was 6.89.

As for `CN(C)C(c1ccc(Cl)cc1)C1CCC(CNC(=O)c2csc3ccccc23)CC1` (single isomer, unassigned) [compound 372, benzo[b]thiophene-3-carboxylic acid {4-[(4-chloro-phenyl)-dimethylamino-methyl]-cyclohexylmethyl}-amide], the “μ-Opioid receptor, % inhibition [1 μM]” value was 84% and the negative logarithm of the Ki (pKi) is 7.48. On to `CC(Oc1ccccc1)C(=O)NCC1CCC(C(c2cccs2)N(C)C)CC1` (stereo not shown) [compound 304, N-[4-(dimethylamino-thiophen-2-yl-methyl)-cyclohexylmethyl]-2-phenoxy-propionamide], for which the inhibition at 1 µM turned out to be 99% and the pKi is 7.82.
